The values that follow come from US20070049593A1 (priority 2004, published 2007).

This test deals with T1, HCV polymerase (Hepatitis C virus genotype 1b, UniProt P26663).
T1 construct: a region encoding NS5B (J Virol 1991 March, 65(3), 1105-13, 544 amino acids after deletion of 47 amino acids on the C-terminal); 6xHis (C); made in house; host or cells: Escherichia coli
As to the kind of experiment: biochemical. On the set-up: species or system HCV BK strain. A digest of the protocol: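 Recombinant HCV BK-strain NS5B (C-terminal 47 aa deleted, His6-tagged, E. coli), 0.5 μg/ml, run with 5 μg/ml in vitro-transcribed RNA template (polyU/3′X), ATP/GTP/CTP 50 μM, UTP 2 μM plus [3H]UTP, pH 7.5, 25° C, 90 min. TCA-precipitated RNA counted by scintillation; IC50 from activity with vs without compound.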

Each structure is given as a SMILES string. Counter-ions that a name gives are not always drawn.

T1 sequence (P26663 2420-2963): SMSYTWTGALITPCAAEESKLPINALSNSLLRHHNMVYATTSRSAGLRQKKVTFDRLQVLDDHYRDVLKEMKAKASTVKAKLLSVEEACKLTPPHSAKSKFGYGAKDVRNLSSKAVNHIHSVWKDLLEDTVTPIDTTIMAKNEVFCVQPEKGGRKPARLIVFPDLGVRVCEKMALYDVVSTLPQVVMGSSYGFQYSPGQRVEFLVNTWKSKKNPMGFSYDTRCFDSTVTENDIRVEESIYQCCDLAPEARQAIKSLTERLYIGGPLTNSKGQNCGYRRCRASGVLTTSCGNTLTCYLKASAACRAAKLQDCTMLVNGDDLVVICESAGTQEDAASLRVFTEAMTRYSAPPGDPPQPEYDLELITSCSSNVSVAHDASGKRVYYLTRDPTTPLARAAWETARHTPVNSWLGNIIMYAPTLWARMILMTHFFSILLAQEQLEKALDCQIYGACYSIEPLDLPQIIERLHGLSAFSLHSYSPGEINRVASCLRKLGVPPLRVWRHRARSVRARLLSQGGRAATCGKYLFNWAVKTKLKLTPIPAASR

As to `COc1ccc2c(c1)OCCn1c-2c(C2CCCCC2)c2ccc(C(=O)NC(C)(C)c3nc4ccccc4n3CCN3CCOCC3)cc21` [Example 2-432, N-(1-methyl-1-{1-[2-(morpholin-4-yl)ethyl]-1H-benzimidazol-2-yl}ethyl)-12-cyclohexyl-3-methoxy-6,7-dihydro-5-oxa-7a-azadibenzo[a,e]azulene-9-carboxamide], the 50% inhibitory concentration (IC50) is under 100 nM.
For `COc1ccc2c(c1)OCCn1c-2c(C2CCCCC2)c2ccc(C(=O)NC(C)(C)c3nc4ccccc4n3CCO)cc21` [Example 2-433, N-{1-[1-(2-hydroxyethyl)-1H-benzimidazol-2-yl]-1-methylethyl}-12-cyclohexyl-3-methoxy-6,7-dihydro-5-oxa-7a-azadibenzo[a,e]azulene-9-carboxamide], the half-inhibitory concentration (IC50) is under 100 nM.
For the compound `COCCn1c(C(C)(C)NC(=O)c2ccc3c(C4CCCCC4)c4n(c3c2)CCOc2cc(OC)ccc2-4)nc2ccccc21` [Example 2-434, N-{1-[1-(2-methoxyethyl)-1H-benzimidazol-2-yl]-1-methylethyl}-12-cyclohexyl-3-methoxy-6,7-dihydro-5-oxa-7a-azadibenzo[a,e]azulene-9-carboxamide], the concentration for half-maximal inhibition (IC50) was under 100 nM.
Under `CCOC(=O)[C@H](Cc1ccc(O)cc1)NC(=O)c1ccc2c(C3CCCCC3)c3n(c2c1)CCOc1cc(OC)ccc1-3` [Example 2-435, ethyl (S)-2-[(12-cyclohexyl-3-methoxy-6,7-dihydro-5-oxa-7a-azadibenzo[a,e]azulene-9-carbonyl)amino]-3-(4-hydroxyphenyl)propionate] stands under 100 nM.
For the compound `COc1ccc2c(c1)OCCn1c-2c(C2CCCCC2)c2ccc(C(=O)NC(Cc3ccc(O)cc3)C(C)C)cc21` (stereo not drawn) [Example 2-436, N-[1-(4-hydroxybenzyl)-2-methylpropyl]-12-cyclohexyl-3-methoxy-6,7-dihydro-5-oxa-7a-azadibenzo[a,e]azulene-9-carboxamide], the IC50 is under 100 nM.
For `COCCOc1cc2[nH]c(C3(NC(=O)c4ccc5c(C6CCCCC6)c6n(c5c4)CCOc4cc(OC)ccc4-6)CCC3)nc2cc1C(=O)O` [Example 2-437, 2-{1-[(12-cyclohexyl-3-methoxy-6,7-dihydro-5-oxa-7a-azadibenzo[a,e]azulene-9-carbonyl)amino]cyclobutyl}-6-(2-methoxyethoxy)-1H-benzimidazole-5-carboxylic acid], the concentration for half-maximal inhibition (IC50) was under 100 nM.
With `COCCOc1cc2[nH]c(C3(NC(=O)c4ccc5c(C6CCCCC6)c6n(c5c4)CCOc4cc(OC)ccc4-6)CCC3)nc2cc1CO` [Example 2-438, N-{1-[5-hydroxymethyl-6-(2-methoxyethoxy)-1H-benzimidazol-2-yl]cyclobutyl}-12-cyclohexyl-3-methoxy-6,7-dihydro-5-oxa-7a-azadibenzo[a,e]azulene-9-carboxamide], the IC50 was under 100 nM.
`COc1ccc2c(c1)OCCn1c-2c(C2CCCCC2)c2ccc(C(=O)NC3(c4nc5ccc(O)cc5[nH]4)CCC3)cc21` [Example 2-439, N-[1-(6-hydroxy-1H-benzimidazol-2-yl)cyclobutyl]-12-cyclohexyl-3-methoxy-6,7-dihydro-5-oxa-7a-azadibenzo[a,e]azulene-9-carboxamide]: the IC50 is under 100 nM.
Next, `COc1ccc2c(c1)OCCn1c-2c(C2CCCCC2)c2ccc(C(=O)N[C@@H](Cc3c[nH]c4ccc(OCC(=O)O)cc34)c3csc(C)n3)cc21` [Example 2-440, {3-[(S)-2-[(12-cyclohexyl-3-methoxy-6,7-dihydro-5-oxa-7a-azadibenzo[a,e]azulene-9-carbonyl)amino]-2-(2-methylthiazol-4-yl)ethyl]-1H-indol-5-yloxy}acetic acid]: under 100 nM; `COc1ccc2c(c1)OCCn1c-2c(C2CCCCC2)c2ccc(C(=O)N[C@H](C#N)Cc3ccc(O)cc3)cc21` [Example 2-441, N—[(S)-cyano-(4-hydroxybenzyl)-methyl]-12-cyclohexyl-3-methoxy-6,7-dihydro-5-oxa-7a-azadibenzo[a,e]azulene-9-carboxamide]: under 100 nM.
As for `COC(=O)C(N)Cc1ccc(C(C)(C)NC(=O)c2ccc3c(C4CCCCC4)c4n(c3c2)CCOc2cc(OC)ccc2-4)cc1` (stereo not drawn) [Example 2-442, methyl 2-amino-3-(4-{1-[(12-cyclohexyl-3-methoxy-6,7-dihydro-5-oxa-7a-azadibenzo[a,e]azulene-9-carbonyl)amino]-1-methylethyl}phenyl)propionate monohydrochloride], the IC50 was under 100 nM.
Regarding `COc1ccc2c(c1)OCCn1c-2c(C2CCCCC2)c2ccc(C(=O)NC(C)(C)c3ccc(CC(NC(C)=O)C(=O)O)cc3)cc21` (stereo not drawn) [Example 2-443, 2-acetylamino-3-(4-{1-[(12-cyclohexyl-3-methoxy-6,7-dihydro-5-oxa-7a-azadibenzo[a,e]azulene-9-carbonyl)amino]-1-methylethyl}phenyl)propionic acid], the concentration for half-maximal inhibition (IC50) was under 100 nM.
Next, `COc1ccc2c(c1)OCCn1c-2c(C2CCCCC2)c2ccc(C(=O)NC(C)(C)c3ccc(CC(N)C(=O)O)cc3)cc21` (stereo not drawn) [Example 2-444, 2-amino-3-(4-{1-[(12-cyclohexyl-3-methoxy-6,7-dihydro-5-oxa-7a-azadibenzo[a,e]azulene-9-carbonyl)amino]-1-methylethyl}phenyl)propionic acid]: under 100 nM; `COc1ccc2c(c1)OCCn1c-2c(C2CCCCC2)c2ccc(C(=O)NC3(c4nc5ccc(C(C)(C)C(=O)O)cc5[nH]4)CCC3)cc21` [Example 2-445, 2-(2-{1-[(12-cyclohexyl-3-methoxy-6,7-dihydro-5-oxa-7a-azadibenzo[a,e]azulene-9-carbonyl)amino]cyclobutyl}-3H-benzimidazol-5-yl)-2-methylpropionic acid]: under 100 nM; `CCOc1ccc2c(c1)OCCn1c-2c(C2CCCCC2)c2ccc(C(=O)NC3(C(=O)Nc4ccc(/C=C/C(=O)O)cc4)CCC3)cc21` [Example 2-446, (E)-3-[4-({1-[(12-cyclohexyl-3-ethoxy-6,7-dihydro-5-oxa-7a-azadibenzo[a,e]azulene-9-carbonyl)amino]cyclobutanecarbonyl}amino)phenyl]acrylic acid]: under 100 nM.
`COc1ccc2c(c1)OCCn1c-2c(C2CCCCC2)c2ccc(C(=O)NC3(c4nc5cc(C(C)(C)O)c(OC)cc5[nH]4)CCC3)cc21` [Example 2-447, N-{1-[5-(1-hydroxy-1-methylethyl)-6-methoxy-1H-benzimidazol-2-yl]cyclobutyl}-12-cyclohexyl-3-methoxy-6,7-dihydro-5-oxa-7a-azadibenzo[a,e]azulene-9-carboxamide] came in with a half-maximal inhibitory concentration (IC50) of under 100 nM.
Next, `COc1ccc2c(c1)OCCn1c-2c(C2CCCCC2)c2ccc(C(=O)NC3(C(=O)Nc4ccc5nc[nH]c5c4)CCC3)cc21` [Example 2-448, N-[1-(3H-benzimidazol-5-ylcarbamoyl)cyclobutyl]-12-cyclohexyl-3-methoxy-6,7-dihydro-5-oxa-7a-azadibenzo[a,e]azulene-9-carboxamide]: under 100 nM; `COc1ccc2c(c1)OCCn1c-2c(C2CCCCC2)c2ccc(C(=O)NC3(c4nc5ccc(C(=O)O)cc5[nH]4)CCN(C)CC3)cc21` [Example 2-449, 2-{4-[(12-cyclohexyl-3-methoxy-6,7-dihydro-5-oxa-7a-azadibenzo[a,e]azulene-9-carbonyl)amino]-1-methylpiperidin-4-yl}-3H-benzimidazole-5-carboxylic acid]: under 100 nM.
Compound `COc1ccc2c(c1)OCCn1c-2c(C2CCCCC2)c2ccc(C(=O)N[C@@H](Cc3ccc(O)cc3)C3=NCCN3)cc21` [Example 2-450, N—[(S)-1-(4,5-dihydro-1H-imidazol-2-yl)-2-(4-hydroxyphenyl)ethyl]-12-cyclohexyl-3-methoxy-6,7-dihydro-5-oxa-7a-azadibenzo[a,e]azulene-9-carboxamide] displayed an IC50 of under 100 nM.
In turn, `COc1ccc2c(c1)OCCn1c-2c(C2CCCCC2)c2ccc(C(=O)NC3(C(=O)Nc4ccc(/C=C/C(=O)O)cc4OC)CCC3)cc21` [Example 2-451, (E)-3-[4-({1-[(12-cyclohexyl-3-methoxy-6,7-dihydro-5-oxa-7a-azadibenzo[a,e]azulene-9-carbonyl)amino]cyclobutanecarbonyl}amino)-3-methoxyphenyl]acrylic acid] gave an IC50 of under 100 nM.
In turn, `COc1ccc2c(c1)OCCn1c-2c(C2CCCCC2)c2ccc(C(=O)N[C@@H](Cc3ccc(O)cc3)C(=O)OC(C)(C)C)cc21` [Example 2-452, tert-butyl (S)-2-[(12-cyclohexyl-3-methoxy-6,7-dihydro-5-oxa-7a-azadibenzo[a,e]azulene-9-carbonyl)amino]-3-(4-hydroxyphenyl)propionate] displayed a half-maximal inhibitory concentration (IC50) of under 100 nM.
Under `COc1ccc2c(c1)OCCn1c-2c(C2CCCCC2)c2ccc(C(=O)N[C@@H](Cc3ccc(O)cc3)c3nc(=O)on3C)cc21` [Example 2-453, N—[(S)-2-(4-hydroxyphenyl)-1-(2-methyl-5-oxo-2,5-dihydro-1,2,4-oxadiazol-3-yl)ethyl]-12-cyclohexyl-3-methoxy-6,7-dihydro-5-oxa-7a-azadibenzo[a,e]azulene-9-carboxamide] stands under 100 nM.
Under `COc1ccc2c(c1)OCCn1c-2c(C2CCCCC2)c2ccc(C(=O)N[C@@H](Cc3ccc(O)cc3)c3nnnn3C)cc21` [Example 2-454, N—[(S)-2-(4-hydroxyphenyl)-1-(1-methyl-1H-tetrazol-5-yl)ethyl]-12-cyclohexyl-3-methoxy-6,7-dihydro-5-oxa-7a-azadibenzo[a,e]azulene-9-carboxamide] stands under 100 nM; under `COc1ccc2c(c1)OCCn1c-2c(C2CCCCC2)c2ccc(C(=O)NC3(c4nc5cc(OCC(=O)O)ccc5[nH]4)CCC3)cc21` [Example 2-455, (2-{1-[(12-cyclohexyl-3-methoxy-6,7-dihydro-5-oxa-7a-azadibenzo[a,e]azulene-9-carbonyl)amino]cyclobutyl}-1H-benzimidazol-5-yloxy)acetic acid], under 100 nM.

One may read the IC50 as the point on the concentration scale where inhibition reaches its midpoint. High values mean a need for much substance, low ones inhibition by little substance.
